Test results: the NIST ThermoML archive (doi:10.1016/j.jct.2007.11.001)

Assay: molar heat capacity at constant pressure
Conditions: 101.33 kPa, Small (less than 1 g) adiabatic calorimetry

O=P([O-])([O-])[O-].[Cs+].[Mg+2] [caesium-magnesium monophosphate]
molar heat capacity at constant pressure [J/K/mol]
Conditions | Crystal 1 | Crystal 2
7.22 K | – | 0.956
7.3 K | – | 0.981
7.96 K | – | 1.22
8 K | – | 1.24
8.7 K | – | 1.59
9.4 K | – | 1.98
10.09 K | – | 2.4
10.42 K | – | 2.67
11.01 K | – | 3.12
11.69 K | – | 3.64
12.4 K | – | 4.2
13.07 K | – | 4.7
13.9 K | – | 5.392
14.63 K | – | 6.03
15.35 K | – | 6.706
16.06 K | – | 7.41
16.84 K | – | 8.22
17.45 K | – | 8.872
18.81 K | – | 10.39
19.49 K | – | 11.15
20.16 K | – | 11.94
21.16 K | – | 13.14
22.91 K | – | 15.3
25.31 K | – | 18.18
27.75 K | – | 20.87
30.21 K | – | 23.48
32.69 K | – | 25.92
35.16 K | – | 28.27
37.64 K | – | 30.51
40.12 K | – | 32.64
42.6 K | – | 34.69
45.08 K | – | 36.64
47.57 K | – | 38.55
52.52 K | – | 41.99
54.99 K | – | 43.63
57.47 K | – | 45.23
59.95 K | – | 46.77
61.64 K | – | 47.78
63.99 K | – | 49.13
67.48 K | – | 51.06
71.15 K | – | 53
74.82 K | – | 54.85
78.48 K | – | 56.63
82.15 K | – | 58.35
82.7 K | – | 58.61
85.82 K | – | 60.04
85.9 K | – | 60.06
88.99 K | – | 61.45
89.49 K | – | 61.67
91.95 K | – | 62.76
94.91 K | – | 64.05
97.87 K | – | 65.34
100.82 K | – | 66.59
103.77 K | – | 67.82
106.72 K | – | 69.04
109.68 K | – | 70.27
112.63 K | – | 71.51
115.8 K | – | 72.79
118.91 K | – | 74.06
121.88 K | – | 75.27
124.84 K | – | 76.48
127.8 K | – | 77.7
130.76 K | – | 78.9
133.72 K | – | 80.09
136.69 K | – | 81.3
139.65 K | – | 82.5
142.62 K | – | 83.64
145.59 K | – | 84.81
148.56 K | – | 85.97
151.53 K | – | 87.14
154.5 K | – | 88.22
157.6 K | – | 89.38
160.43 K | – | 90.46
163.6 K | – | 91.63
166.37 K | – | 92.62
169.34 K | – | 93.7
172.31 K | – | 94.79
175.74 K | – | 96.03
178.73 K | – | 97.11
182.05 K | – | 98.28
185.19 K | – | 99.36
188.17 K | – | 100.4
191.4 K | – | 101.5
194.3 K | – | 102.6
197.16 K | – | 103.5
199.5 K | – | 104.3
200.16 K | – | 104.6
202.4 K | – | 105.3
202.86 K | – | 105.5
205.51 K | – | 106.3
205.98 K | – | 106.6
208.48 K | – | 107.5
208.94 K | – | 107.8
211.44 K | – | 108.6
211.9 K | – | 108.9
214.13 K | – | 109.6
214.59 K | – | 109.9
217.18 K | – | 110.9
217.64 K | – | 111.2
220.64 K | – | 112.7
221.1 K | – | 113
223.65 K | – | 114.4
224.11 K | – | 114.9
226.53 K | – | 116.3
226.99 K | – | 116.9
232.4 K | – | 122.6
232.75 K | – | 123.1
235.69 K | 133.5 | 129.2
235.7 K | 129.1 | –
237.89 K | 126.1 | –
238.55 K | 124.9 | –
240.77 K | 121.7 | –
241.43 K | 120.9 | –
243.77 K | 118.8 | –
244.43 K | 118.3 | –
246.72 K | 116.9 | –
247.38 K | 116.7 | –
249.24 K | 115.8 | –
249.9 K | 115.7 | –
250 K | 112.2 | –
252.35 K | 115.1 | –
253.01 K | 114.9 | –
255.27 K | 114.7 | –
255.8 K | 114.7 | –
257.91 K | 114.8 | –
258.57 K | 114.8 | –
260 K | 114.2 | –
260.67 K | 115 | –
261.33 K | 115.1 | –
263.41 K | 115.3 | –
264.07 K | 115.4 | –
266.23 K | 115.7 | –
266.89 K | 115.8 | –
268.97 K | 116.1 | –
269.63 K | 116.2 | –
270 K | 116.3 | –
271.52 K | 116.5 | –
272.18 K | 116.7 | –
274.19 K | 117.1 | –
274.85 K | 117.2 | –
276.83 K | 117.7 | –
277.49 K | 117.8 | –
280 K | 118.3 | –
280.12 K | 118.3 | –
282.5 K | 118.8 | –
285.44 K | 119.4 | –
287.8 K | 119.8 | –
289.7 K | 120.3 | –
290 K | 120.3 | –
